Assay results published in patent US12637471B2, “Heterocyclic compounds, compositions, methods of preparation and uses thereof” (Organon R&D Finland Ltd, priority 2021, dated 2026).

Columns and labels:
Type in all cases: biochemical
[1] = biological target: T1, Recombinant human AKR1C3 (17β-HSD5) protein (Homo sapiens, UniProt P42330); assay: Inhibition of AKR1C3 (17β-hydroxysteroid dehydrogenase type 5) enzyme, fluorescence assay; conditions: inhibitor at 500 nM
T1 construct: made in house; host or cells: E. coli
T1 sequence (P42330 1-323): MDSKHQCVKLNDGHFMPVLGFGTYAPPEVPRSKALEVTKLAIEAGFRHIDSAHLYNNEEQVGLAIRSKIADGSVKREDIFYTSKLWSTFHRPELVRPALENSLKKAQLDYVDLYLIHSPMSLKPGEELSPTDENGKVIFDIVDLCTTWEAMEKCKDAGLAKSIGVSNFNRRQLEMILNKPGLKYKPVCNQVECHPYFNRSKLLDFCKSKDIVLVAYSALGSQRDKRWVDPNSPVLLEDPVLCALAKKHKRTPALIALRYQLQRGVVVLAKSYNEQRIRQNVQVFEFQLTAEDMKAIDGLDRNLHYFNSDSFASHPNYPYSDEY
Procedure, shortened: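 Percent inhibition at 500 nM compound, derived from substrate conversion; product alcohol measured by fluorescence (ex 420, em 510 nm) against a 1 μM–10 nM standard curve. Reaction: 27 nM recombinant AKR1C3, 1 μM ketone substrate, 1 mM NADPH, phosphate/EDTA buffer pH 7.4, 1% DMSO, RT for 60–120 min.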

[2] = biological target: T2, Recombinant human aldo-keto reductase family 1 member C2 (AKR1C2) protein (Homo sapiens, UniProt P52895); assay: Inhibition of the aldo-keto reductase family 1 member C2, 3H-dihydrotestosterone conversion; conditions: inhibitor at 10 μM
T2 construct: made in house; host or cells: Sf-9 insect cells (baculovirus)
T2 sequence (P52895 1-323): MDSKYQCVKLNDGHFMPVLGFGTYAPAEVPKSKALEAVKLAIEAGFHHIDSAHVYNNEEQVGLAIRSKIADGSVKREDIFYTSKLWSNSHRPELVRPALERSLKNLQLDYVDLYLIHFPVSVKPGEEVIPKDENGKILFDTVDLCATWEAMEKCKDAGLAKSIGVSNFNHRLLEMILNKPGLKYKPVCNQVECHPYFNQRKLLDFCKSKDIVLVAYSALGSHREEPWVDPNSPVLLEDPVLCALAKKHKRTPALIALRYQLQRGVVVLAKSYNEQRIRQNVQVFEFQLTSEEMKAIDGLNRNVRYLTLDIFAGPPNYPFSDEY
Procedure, shortened: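 Single-point screen at 10 μM inhibitor, 1% DMSO: [3H]DHT (6.25 nM) reduction to 3α-diol by baculovirus-made AKR1C2 (13.6 nM), pH 7.4 phosphate buffer, 1 mM NADPH, 37 °C for 45 min. Radio-UPLC quantified product versus substrate to give percent inhibition.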

[3] = biological target: T3, 17β-Hydroxysteroid Dehydrogenase Type 2 Enzyme (17β-HSD2) (Homo sapiens, UniProt P37059); assay: Inhibition of the 17β-hydroxysteroid dehydrogenase type 2 enzyme, 3H-testosterone conversion; conditions: inhibitor at 10 μM
T3 construct: made in house; host or cells: Sf-9 insect cells (baculovirus)
T3 sequence (P37059 1-387): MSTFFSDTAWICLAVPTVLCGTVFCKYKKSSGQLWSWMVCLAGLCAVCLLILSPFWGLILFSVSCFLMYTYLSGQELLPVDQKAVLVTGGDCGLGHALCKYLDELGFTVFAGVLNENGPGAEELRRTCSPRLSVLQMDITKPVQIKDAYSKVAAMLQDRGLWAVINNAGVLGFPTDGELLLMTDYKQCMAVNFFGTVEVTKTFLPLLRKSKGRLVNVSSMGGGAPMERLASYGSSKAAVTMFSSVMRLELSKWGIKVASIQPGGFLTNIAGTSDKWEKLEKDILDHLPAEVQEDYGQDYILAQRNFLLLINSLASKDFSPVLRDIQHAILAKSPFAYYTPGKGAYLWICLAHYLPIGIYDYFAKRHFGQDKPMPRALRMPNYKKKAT
Procedure, shortened: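 Single-point screen at 10 μM inhibitor, 1% DMSO: Sf-9-expressed human enzyme (105 nM), NAD 1 mM, ³H-labelled testosterone 56.25 nM, pH 8.5 phosphate/EDTA buffer, 30 min, room temperature. After TCA quench, substrate and product radioactivity quantified by UPLC with scintillation detection; inhibition percent from conversion.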

Compound	inhibition at 0.5 µM [1]	inhibition at 10 µM [2]	inhibition at 10 µM [3]
N#CC(=C1CCN(C(=O)N2CCC(O)CC2)CC1)c1ccc(OC(F)(F)F)cc1 [Compound 115, 2-(1-(4-hydroxypiperidine-1-carbonyl)piperidin-4-ylidene)-2-(4-(trifluoromethoxy)phenyl)acetonitrile]	96%	0%	-1%
N#CC(=C1CCN(C(=O)N2CCc3[nH]ncc3C2)CC1)c1cc(F)cc(F)c1 [Compound 116, 2-(3,5-difluorophenyl)-2-(1-(4,5,6,7-tetrahydro-1H-pyrazolo[4,3-c]pyridine-5-carbonyl)piperidin-4-ylidene)acetonitrile]	98%	26%	12%
N#CC(=C1CCN(C(=O)N2CCc3sccc3C2)CC1)c1ccc(OC(F)(F)F)cc1 [Compound 117, 2-(1-(4,5,6,7-tetrahydrothieno[3,2-c]pyridine-5-carbonyl)piperidin-4-ylidene)-2-(4-(trifluoromethoxy)phenyl)acetonitrile]	94%	7%	22%
Cn1ncc2cccc(C(C#N)=C3CCN(C(=O)N4CCC(CO)CC4)CC3)c21 [Compound 118, 2-(1-(4-(hydroxymethyl)piperidine-1-carbonyl)piperidin-4-ylidene)-2-(1-methyl-1H-indazol-7-yl)acetonitrile]	96%	14%	30%
Cn1ncc2cccc(C(C#N)=C3CCN(C(=O)N4CCc5[nH]ncc5C4)CC3)c21 [Compound 119, 2-(1-methyl-1H-indazol-7-yl)-2-(1-(4,5,6,7-tetrahydro-1H-pyrazolo[4,3-c]pyridine-5-carbonyl)piperidin-4-ylidene)acetonitrile]	99%	6%	15%
N#CC(=C1CCN(C(=O)N2CCc3[nH]ncc3C2)CC1)c1ccc(Cl)s1 [Compound 120, 2-(5-chlorothiophen-2-yl)-2-(1-(4,5,6,7-tetrahydro-1H-pyrazolo[4,3-c]pyridine-5-carbonyl)piperidin-4-ylidene)acetonitrile]	99%	43%	20%
N#CC(=C1CCN(C(=O)N2CCn3cncc3C2)CC1)c1ccc(Cl)s1 [Compound 121, 2-(5-chlorothiophen-2-yl)-2-(1-(5,6,7,8-tetrahydroimidazo[1,5-a]pyrazine-7-carbonyl)piperidin-4-ylidene)acetonitrile]	99%	32%	-7%
N#CC(=C1CCN(C(=O)N2CCc3[nH]ncc3C2)CC1)c1ccc(F)cc1F [Compound 122, 2-(2,4-difluorophenyl)-2-(1-(4,5,6,7-tetrahydro-1H-pyrazolo[4,3-c]pyridine-5-carbonyl)piperidin-4-ylidene)acetonitrile]	99%	42%	24%
N#CC(=C1CCN(C(=O)N2CCn3cncc3C2)CC1)c1ccc(F)cc1F [Compound 123, 2-(2,4-difluorophenyl)-2-(1-(5,6,7,8-tetrahydroimidazo[1,5-a]pyrazine-7-carbonyl)piperidin-4-ylidene)acetonitrile]	99%	33%	2%
CC(O)C1CCN(C(=O)N2CCC(=C(C#N)c3ccc(OC(F)(F)F)cc3)CC2)CC1 (stereo not drawn) [Compound 124, 2-(1-(4-(1-hydroxyethyl)piperidine-1-carbonyl)piperidin-4-ylidene)-2-(4-(trifluoromethoxy)phenyl)acetonitrile]	91%	4%	9%
CCOC1CCN(C(=O)N2CCC(=C(C#N)c3ccc(Cl)s3)CC2)CC1 [Compound 125, 2-(5-chlorothiophen-2-yl)-2-(1-(4-ethoxypiperidine-1-carbonyl)piperidin-4-ylidene)acetonitrile]	97%	18%	17%
N#CC(=C1CCN(C(=O)N2CCC(S(N)(=O)=O)CC2)CC1)c1ccc(Cl)cc1 [Compound 126, 1-(4-((4-chlorophenyl)(cyano)methylene)piperidine-1-carbonyl)piperidine-4-sulfonamide]	97%	10%	2%
N#CC(=C1CCN(C(=O)N2CCC(O)CC2)CC1)c1ccc(C(F)(F)F)cc1 [Compound 127, 2-(1-(4-hydroxypiperidine-1-carbonyl)piperidin-4-ylidene)-2-(4-(trifluoromethyl)phenyl)acetonitrile]	96%	-6%	5%
CCOC1CCN(C(=O)N2CCC(=C(C#N)c3ccc(C(F)(F)F)cc3)CC2)CC1 [Compound 128, 2-(1-(4-ethoxypiperidine-1-carbonyl)piperidin-4-ylidene)-2-(4-(trifluoromethyl)phenyl) acetonitrile]	93%	2%	17%
CCOC1CCN(C(=O)N2CCC(=C(C#N)c3cccc(Cl)c3)CC2)CC1 [Compound 129, 2-(3-chlorophenyl)-2-(1-(4-ethoxypiperidine-1-carbonyl)piperidin-4-ylidene)acetonitrile]	98%	11%	5%
CC(=O)N1CCN(C(=O)N2CCC(=C(C#N)c3ccc(Cl)cc3)CC2)CC1 [Compound 130, 2-(1-(4-acetylpiperazine-1-carbonyl)piperidin-4-ylidene)-2-(4-chlorophenyl)acetonitrile]	97%	0%	12%
N#CC(=C1CCN(C(=O)N2CCC(CCO)CC2)CC1)c1ccc(Cl)cc1 [Compound 131, 2-(4-chlorophenyl)-2-(1-(4-(2-hydroxyethyl)piperidine-1-carbonyl)piperidin-4-ylidene) acetonitrile]	98%	8%	13%
N#CC(=C1CCN(C(=O)N2CCC(CCCO)CC2)CC1)c1ccc(Cl)cc1 [Compound 132, 2-(4-chlorophenyl)-2-(1-(4-(3-hydroxypropyl)piperidine-1-carbonyl)piperidin-4-ylidene)acetonitrile]	95%	8%	17%
CC(C)OC1CCN(C(=O)N2CCC(=C(C#N)c3ccc(Cl)cc3)CC2)CC1 [Compound 133, 2-(4-chlorophenyl)-2-(1-(4-isopropoxypiperidine-1-carbonyl)piperidin-4-ylidene)acetonitrile]	97%	16%	23%
CCCOC1CCN(C(=O)N2CCC(=C(C#N)c3ccc(Cl)cc3)CC2)CC1 [Compound 134, 2-(4-chlorophenyl)-2-(1-(4-propoxypiperidine-1-carbonyl)piperidin-4-ylidene)acetonitrile]	98%	13%	12%
N#CC(=C1CCN(C(=O)N2CCC(C(F)(F)F)CC2)CC1)c1ccc(Cl)cn1 [Compound 135, 2-(5-chloropyridin-2-yl)-2-(1-(4-(trifluoromethyl)piperidine-1-carbonyl)piperidin-4-ylidene)acetonitrile]	92%	3%	4%
